Laboratory results as given in patent US5643954A, “Method of preventing and alleviating stress in a healthy mammal in need thereof” (priority 1993, dated 1997).

What was measured:
Corazol convulsions = experiment: testings with Corazolin (Corazol), mice; format: in vivo; conditions: 150 mg/kg of weight
[1] = testings with Corazolin (Corazol), mice; format: in vivo; conditions: mouse, in vivo; 150 mg/kg of weight; read-out: death of the animals
Corazol twitches = experiment: comparative interaction test with Corazol, rats; format: in vivo; conditions: M ± m
hexenal sleep = experiment: comparative interaction test with hexenal, rats; format: in vivo; conditions: for Hexanal sleep duration: M ± m
[2] = tested on: bioelectric activity of rats' brain; experiment: spontaneous bioelectrical activity of rats' brain (EEG, implanted electrodes); format: in vivo; conditions: 90 mg/kg
[3] = format: in vivo; conditions: in words
[4] = orientation motive activity of mice, automated registration of movements; format: in vivo, mice (male); conditions: for Number of movements in 10 min in register: M ± m
Description: Experiments were conducted in vivo on male mice weighing 18-22 g and male rats weighing 200-250 g, as well as in vitro on the isolated organs: a guinea pig's ileum and a rat's seminal effervesces.

Row | Structure (SMILES) | time to death of the animals (Corazol convulsions) | mortality [1] | Corazol twitches, latent period (Corazol twitches; 100 mg/kg) | Corazol twitches, latent period (Corazol twitches; 200 mg/kg) | Hexanal sleep duration (hexenal sleep; 100 mg/kg) | Hexanal sleep duration (hexenal sleep; 200 mg/kg) | hexenal sleep (hexenal sleep; in words) | Maximal effect appearance time from the start of experiment [2] | Nature of effect [2] | Nature of effect, effective for [2] | Index, fast activ. ([2]; M ± m) | Index, slow activ. ([2]; M ± m) | tonico-extensor component of Corazol and strychnine twitches and electrical shock [3] | Number of movements in 10 min in register ([4]; 100 mg/kg intraperitoneally) | Number of movements in 10 min in register ([4]; 200 mg/kg intraperitoneally) | Number of movements in 10 min in register ([4]; 500 mg/kg intraperitoneally) | motor activity ([4]; in words)
1 | C1CCc2nnnn2CC1 [Corazolin, reference compound] | 2 to 4 min | 100% |  |  |  |  |  |  |  |  |  |  |  |  |  |  | 
2 | NCC(CC(=O)O)c1ccccc1 (centres unmarked) [phenibut, reference compound] |  |  | 53.0 ± 5.4 min | 50.0 ± 2.8 min | 110.0 ± 8.3 min | 130.0 ± 8.5 min | prolong hexenal sleep | 40 min | Permanent | over 3 hrs | 77 ± 0.9% | 87 ± 3.1% | reduce the tonico-extensor component of Corazol and strychnine twitches and electrical shock | 434 ± 4.4 | 186 ± 8.7 | 19 ± 3.0 | sharply inhibit motor activity as a dose is increased
